Assay results taken from patent publication US20210238176A1, “PESTICIDALLY-ACTIVE BICYCLIC HETEROAROMATIC COMPOUNDS” (SYNGENTA CROP PROTECTION AG, priority 2018, published 2021).

Legend:
Assay type in all cases: in vivo
[1] = system: Myzus persicae (Green Peach Aphid); assay: Myzus persicae (green peach aphid) feeding/contact activity, sunflower leaf discs; conditions: foliar, 144 h, application rate 200 ppm, aphid population of mixed ages, 6 days after infestation
Description: Myzus persicae (Green Peach Aphid): Feeding/Contact Activity
Sunflower leaf discs were placed onto agar in a 24-well microtiter plate and sprayed with aqueous test solutions prepared from 10,000 ppm DMSO stock solutions. After drying, the leaf discs were infested with an aphid population of mixed ages. The samples were assessed for mortality 6 days after infestation.

[2] = system: Myzus persicae (Green Peach Aphid); assay: Myzus persicae systemic activity, pea seedling roots in test solution; conditions: 144 h, test rate 24 ppm, systemic via pea seedling roots, 6 days
Description: Myzus persicae (Green Peach Aphid). Systemic Activity
Roots of pea seedlings infested with an aphid population of mixed ages were placed directly into aqueous test solutions prepared from 10,000 ppm DMSO stock solutions. The samples were assessed for mortality 6 days after placing seedlings into test solutions.

[3] = system: Myzus persicae (Green Peach Aphid); assay: Myzus persicae intrinsic activity, sucrose solution under Parafilm; conditions: 120 h, test rate 12 ppm, 5 days after infestation
Excerpt: Myzus persicae (Green Peach Aphid). Intrinsic Activity
Test compounds prepared from 10,000 ppm DMSO stock solutions were applied by pipette into 24-well microtiter plates and mixed with sucrose solution. The plates were closed with a stretched Parafilm. A plastic stencil with 24 holes was placed onto the plate and infested pea seedlings were placed directly on the Parafilm. The infested plate was closed with a gel blotting paper and another plastic stencil and then turned upside down. The samples were assessed for mortality 5 days after infestation.

[4] = system: neonicotinoid-resistant Myzus persicae; assay: Myzus persicae (neonicotinoid-resistant) mixed population, contact, pea seedlings; conditions: 120 h, neonicotinoid-resistant strain on pea seedlings, 5 days after treatment, read-out: control (mortality)
Description: Myzus persicae (Green Peach Aphid—Neonicotinoid-Resistant), Mixed Population, Contact
Pea seedlings infested with a mixed-aged neonicotinoid-resistant Myzus persicae population were treated with diluted test solutions in a spray chamber and checked for mortality 5 days after treatment.

[5] = system: Bemisia tabaci (Cotton White Fly); assay: Bemisia tabaci (cotton white fly) feeding/contact activity, cotton leaf discs; conditions: foliar, 144 h, application rate 200 ppm, adult white flies, 6 days after incubation
Description: Bemisia tabaci (Cotton White Fly): Feeding/Contact Activity
Cotton leaf discs were placed on agar in 24-well microtiter plates and sprayed with aqueous test solutions prepared from 10,000 ppm DMSO stock solutions. After drying the leaf discs were infested with adult white flies. The samples were checked for mortality 6 days after incubation.

[6] = system: Nilaparvata lugens (Brown Plant Hopper, metabolic neonicotinoid-resistant); assay: Nilaparvata lugens (metabolic neonicotinoid-resistant) larvicide, feeding/contact, rice plants; conditions: 168 h, N3 nymphs, neonicotinoid-resistant strain, 7 days after treatment, read-out: control (mortality and growth regulation)
Description: Nilaparvata lugens (Brown Plant Hopper—Metabolic Neonicotinoid-Resistant), Larvicide, Feeding/Contact
Rice plants were treated with the diluted test solutions in a spray chamber. After drying, the plants were infested with ˜20 N3 nymphs. 7 days after the treatment, samples were assessed for mortality and growth regulation.

[7] = system: neonicotinoid-resistant Myzus persicae; assay: Myzus persicae (neonicotinoid-resistant) mixed population, contact/feeding, pepper plants; conditions: 120 h, neonicotinoid-resistant strain on pepper plants, 5 days after treatment, read-out: control (mortality)
Description: Myzus persicae (Neonicotinoid-Resistant, Green Peach Aphid), Mixed Population, Contact/Feeding.
Pepper plants were infested with mixed aged neonicotinoid-resistant aphid population and were treated 1 day after infestation with diluted test solutions in a spray chamber. 5 days after treatment, samples were assessed for mortality.

[8] = system: neonicotinoid-resistant Bemisia tabaci; assay: Bemisia tabaci (metabolic neonicotinoid-resistant) adult, cotton leaf discs; conditions: foliar, 96 h, 4 days after infestation, read-out: control (% adult mortality)
Description: Bemisia tabaci (Neonicotinoid-Resistant, Cotton Whitefly-Metabolic Neonicotinoid-Resistant), Adult.
5 cm cotton leaf discs were placed upside down in petri dishes poured out with 11 mL 0.8% water agar and applied in a turntable spraying chamber. After drying of the spray deposits, leaf discs were infested with 10 adult neonicotinoid-resistant Bemisia tabaci. Dishes were covered with a fabric filter and sealed with a perforated plastic lid. Evaluation was made 4 days after infestation on % adult mortality.

O=c1nc2n(Cc3ccc(Cl)nc3)cccc-2n1-c1cncc(F)c1 [Compound A26, 4-[(6-chloro-3-pyridyl)methyl]-1-(5-fluoro-3-pyridyl)imidazo[4,5-b]pyridin-2-one]
≥ 80%: mortality at 200 ppm [1] | mortality at 24 ppm [2] | mortality at 12 ppm [3] | mortality at 200 ppm [4]

Cc1c(-n2c3cccn(Cc4ccc(Cl)nc4)c-3nc2=O)cnn1C [Compound A92, 4-[(6-chloro-3-pyridyl)methyl]-1-(1,5-dimethylpyrazol-4-yl)imidazo[4,5-b]pyridin-2-one]
≥ 80%: mortality at 200 ppm [5] | mortality at 200 ppm [1] | mortality at 24 ppm [2] | mortality at 12 ppm [3] | mortality at 200 ppm [6] | mortality at 200 ppm [7]

O=c1nc2n(Cc3ccc(Cl)nc3)cccc-2n1-c1cnn(C2CC2)c1 [Compound A93, 4-[(6-chloro-3-pyridyl)methyl]-1-(1-cyclopropylpyrazol-4-yl)imidazo[4,5-b]pyridin-2-one]
≥ 80%: mortality at 200 ppm [5] | mortality at 200 ppm [1] | mortality at 24 ppm [2] | mortality at 12 ppm [3] | mortality at 200 ppm [6] | mortality at 200 ppm [7]

CCn1cc(-n2c3cccn(Cc4ccc(Cl)nc4)c-3nc2=O)cn1 [Compound A63, 4-[(6-chloro-3-pyridyl)methyl]-1-(1-ethylpyrazol-4-yl)imidazo[4,5-b]pyridin-2-one]
≥ 80%: mortality at 200 ppm [5] | mortality at 200 ppm [1] | mortality at 12 ppm [3] | mortality at 200 ppm [8] | mortality at 200 ppm [7]

Cc1ccc(-n2c3cccn(Cc4ccc(Cl)nc4)c-3nc2=O)cc1 [Compound A30, 4-[(6-chloro-3-pyridyl)methyl]-1-(p-tolyl)imidazo[4,5-b]pyridin-2-one]
≥ 80%: mortality at 200 ppm [1] | mortality at 12 ppm [3] | mortality at 200 ppm [4]
